Publication PMC11576293, “New series of 4,6-diaryl pyrimidines: facile synthesis and antiproliferative activity as dual EGFR/VEGFR-2 inhibitors” (Frontiers in Chemistry, 2024)

Tests used:
Experiment in all cases: NCI-60 single-dose screen
Assay type in all cases: cell-based
786-0 = conditions: Homo sapiens, single dose 10 µM, '-' = no inhibition, read-out: % Growth Inhibition
Summary of the method: (§1)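 Single concentration (10 μM) per compound, assayed by the NCI DTP against its 60-line panel covering leukemia, lung, colon, CNS, melanoma, ovarian, renal, prostate and breast cancers.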

A498 = conditions: Homo sapiens, single dose 10 µM, '-' = no inhibition, read-out: % Growth Inhibition
Summary of the method: as §1

A549/ATCC = conditions: Homo sapiens, single dose 10 µM, '-' = no inhibition, read-out: % Growth Inhibition
Summary of the method: as §1

ACHN 1 = conditions: Homo sapiens, single dose 10 µM, '-' = no inhibition, read-out: % Growth Inhibition
Summary of the method: as §1

CAKI-1 = conditions: Homo sapiens, single dose 10 µM, '-' = no inhibition, read-out: % Growth Inhibition
Summary of the method: as §1

CCRF-CEM = conditions: Homo sapiens, single dose 10 µM, '-' = no inhibition, read-out: % Growth Inhibition
Summary of the method: as §1

COLO 205 = conditions: Homo sapiens, single dose 10 µM, '-' = no inhibition, read-out: % Growth Inhibition
Summary of the method: as §1

DU-145 = conditions: Homo sapiens, single dose 10 µM, '-' = no inhibition, read-out: % Growth Inhibition
Summary of the method: as §1

EKVX = conditions: Homo sapiens, single dose 10 µM, '-' = no inhibition, read-out: % Growth Inhibition
Summary of the method: as §1

HCC-2998 = conditions: Homo sapiens, single dose 10 µM, '-' = no inhibition, read-out: % Growth Inhibition
Summary of the method: as §1

HCT-116 = conditions: Homo sapiens, single dose 10 µM, '-' = no inhibition, read-out: % Growth Inhibition
Summary of the method: as §1

HCT-15 = conditions: Homo sapiens, single dose 10 µM, '-' = no inhibition, read-out: % Growth Inhibition
Summary of the method: as §1

HOP-62 = conditions: Homo sapiens, single dose 10 µM, '-' = no inhibition, read-out: % Growth Inhibition
Summary of the method: as §1

HOP-92 = conditions: Homo sapiens, single dose 10 µM, '-' = no inhibition, read-out: % Growth Inhibition
Summary of the method: as §1

HS 578T = conditions: Homo sapiens, single dose 10 µM, '-' = no inhibition, read-out: % Growth Inhibition
Summary of the method: as §1

IGROV1 = conditions: Homo sapiens, IGROV-1, single dose 10 µM, '-' = no inhibition, read-out: % Growth Inhibition
Summary of the method: as §1

KM12 = conditions: Homo sapiens, single dose 10 µM, '-' = no inhibition, read-out: % Growth Inhibition
Summary of the method: as §1

LOX IMVI = conditions: Homo sapiens, single dose 10 µM, '-' = no inhibition, read-out: % Growth Inhibition
Summary of the method: as §1

M14 = conditions: Homo sapiens, single dose 10 µM, '-' = no inhibition, read-out: % Growth Inhibition
Summary of the method: as §1

MALME-3M = conditions: Homo sapiens, single dose 10 µM, '-' = no inhibition, read-out: % Growth Inhibition
Summary of the method: as §1

MCF7 = conditions: Homo sapiens, single dose 10 µM, '-' = no inhibition, read-out: % Growth Inhibition
Summary of the method: as §1

MDA-MB-468 = conditions: Homo sapiens, single dose 10 µM, '-' = no inhibition, read-out: % Growth Inhibition
Summary of the method: as §1

NCI-H23 = conditions: Homo sapiens, single dose 10 µM, '-' = no inhibition, read-out: % Growth Inhibition
Summary of the method: as §1

NCI-H322M = conditions: Homo sapiens, single dose 10 µM, '-' = no inhibition, read-out: % Growth Inhibition
Summary of the method: as §1

NCI-H460 = conditions: Homo sapiens, single dose 10 µM, '-' = no inhibition, read-out: % Growth Inhibition
Summary of the method: as §1

NCI-H522 = conditions: Homo sapiens, single dose 10 µM, '-' = no inhibition, read-out: % Growth Inhibition
Summary of the method: as §1

NCI/ADR-RES = conditions: Homo sapiens, single dose 10 µM, '-' = no inhibition, read-out: % Growth Inhibition
Summary of the method: as §1

OVCAR-3 = conditions: Homo sapiens, single dose 10 µM, '-' = no inhibition, read-out: % Growth Inhibition
Summary of the method: as §1

OVCAR-4 = conditions: Homo sapiens, single dose 10 µM, '-' = no inhibition, read-out: % Growth Inhibition
Summary of the method: as §1

OVCAR-5 = conditions: Homo sapiens, single dose 10 µM, '-' = no inhibition, read-out: % Growth Inhibition
Summary of the method: as §1

PC-3 = conditions: Homo sapiens, single dose 10 µM, '-' = no inhibition, read-out: % Growth Inhibition
Summary of the method: as §1

RPMI-8226 = conditions: Homo sapiens, single dose 10 µM, '-' = no inhibition, read-out: % Growth Inhibition
Summary of the method: as §1

RXF 393 = conditions: Homo sapiens, single dose 10 µM, '-' = no inhibition, read-out: % Growth Inhibition
Summary of the method: as §1

SF-268 = conditions: Homo sapiens, single dose 10 µM, '-' = no inhibition, read-out: % Growth Inhibition
Summary of the method: as §1

SF-295 = conditions: Homo sapiens, single dose 10 µM, '-' = no inhibition, read-out: % Growth Inhibition
Summary of the method: as §1

SF-539 = conditions: Homo sapiens, single dose 10 µM, '-' = no inhibition, read-out: % Growth Inhibition
Summary of the method: as §1

SK-MEL-28 = conditions: Homo sapiens, single dose 10 µM, '-' = no inhibition, read-out: % Growth Inhibition
Summary of the method: as §1

SK-MEL-2 = conditions: Homo sapiens, single dose 10 µM, '-' = no inhibition, read-out: % Growth Inhibition
Summary of the method: as §1

SK-MEL-5 = conditions: Homo sapiens, single dose 10 µM, '-' = no inhibition, read-out: % Growth Inhibition
Summary of the method: as §1

SK-OV-3 = conditions: Homo sapiens, single dose 10 µM, '-' = no inhibition, read-out: % Growth Inhibition
Summary of the method: as §1

SNB-19 = conditions: Homo sapiens, single dose 10 µM, '-' = no inhibition, read-out: % Growth Inhibition
Summary of the method: as §1

SNB-75 = conditions: Homo sapiens, single dose 10 µM, '-' = no inhibition, read-out: % Growth Inhibition
Summary of the method: as §1

SR = conditions: Homo sapiens, single dose 10 µM, '-' = no inhibition, read-out: % Growth Inhibition
Summary of the method: as §1

SW-620 = conditions: Homo sapiens, single dose 10 µM, '-' = no inhibition, read-out: % Growth Inhibition
Summary of the method: as §1

T-47D = conditions: Homo sapiens, T47D, single dose 10 µM, '-' = no inhibition, read-out: % Growth Inhibition
Summary of the method: as §1

U251 = conditions: Homo sapiens, U-251, single dose 10 µM, '-' = no inhibition, read-out: % Growth Inhibition
Summary of the method: as §1

UACC-62 = conditions: Homo sapiens, single dose 10 µM, '-' = no inhibition, read-out: % Growth Inhibition
Summary of the method: as §1

UO-31 = conditions: Homo sapiens, single dose 10 µM, '-' = no inhibition, read-out: % Growth Inhibition
Summary of the method: as §1

Compound: COc1ccc(-c2cc(-c3ccc(Cl)cc3)nc(SC)n2)cc1OC [Compound 23, 4-(4-Chlorophenyl)-6-(3,4-dimethoxyphenyl)-2-(methylthio)pyrimidine]
- inhibition at 10 µM (786-0): 6.05%
- inhibition at 10 µM (A498): < 0%
- inhibition at 10 µM (A549/ATCC): 19.8%
- inhibition at 10 µM (ACHN 1): 9.14%
- inhibition at 10 µM (CAKI-1): 24%
- inhibition at 10 µM (CCRF-CEM): 17.9%
- inhibition at 10 µM (COLO 205): 8.14%
- inhibition at 10 µM (DU-145): 9.83%
- inhibition at 10 µM (EKVX): 23.1%
- inhibition at 10 µM (HCC-2998): < 0%
- inhibition at 10 µM (HCT-116): 33.7%
- inhibition at 10 µM (HCT-15): 28%
- inhibition at 10 µM (HOP-62): < 0%
- inhibition at 10 µM (HOP-92): < 0%
- inhibition at 10 µM (HS 578T): 17%
- inhibition at 10 µM (IGROV1): < 0%
- inhibition at 10 µM (KM12): 25.4%
- inhibition at 10 µM (LOX IMVI): 15%
- inhibition at 10 µM (M14): 0.3%
- inhibition at 10 µM (MALME-3M): < 0%
- inhibition at 10 µM (MCF7): 23.9%
- inhibition at 10 µM (MDA-MB-468): 6.77%
- inhibition at 10 µM (NCI-H23): 7.41%
- inhibition at 10 µM (NCI-H322M): < 0%
- inhibition at 10 µM (NCI-H460): 11.4%
- inhibition at 10 µM (NCI-H522): 31.2%
- inhibition at 10 µM (NCI/ADR-RES): 14.9%
- inhibition at 10 µM (OVCAR-3): < 0%
- inhibition at 10 µM (OVCAR-4): 27.5%
- inhibition at 10 µM (OVCAR-5): 11.9%
- inhibition at 10 µM (PC-3): 15.7%
- inhibition at 10 µM (RPMI-8226): 20.1%
- inhibition at 10 µM (RXF 393): < 0%
- inhibition at 10 µM (SF-268): 11.5%
- inhibition at 10 µM (SF-295): 12.4%
- inhibition at 10 µM (SF-539): 15.7%
- inhibition at 10 µM (SK-MEL-28): 8.87%
- inhibition at 10 µM (SK-MEL-2): 8.95%
- inhibition at 10 µM (SK-MEL-5): 24.5%
- inhibition at 10 µM (SK-OV-3): 2.94%
- inhibition at 10 µM (SNB-19): 3.67%
- inhibition at 10 µM (SNB-75): < 0%
- inhibition at 10 µM (SR): 34%
- inhibition at 10 µM (SW-620): 1.5%
- inhibition at 10 µM (T-47D): 25.5%
- inhibition at 10 µM (U251): 11.6%
- inhibition at 10 µM (UACC-62): < 0%
- inhibition at 10 µM (UO-31): 22.9%

Compound: CCSc1nc(-c2ccc(Cl)cc2)cc(-c2ccc(OC)c(OC)c2)n1 [Compound 24, 4-(4-Chlorophenyl)-2-(ethylthio)-6-(3,4-dimethoxyphenyl)pyrimidine]
- inhibition at 10 µM (786-0): 11.8%
- inhibition at 10 µM (A498): 1.95%
- inhibition at 10 µM (A549/ATCC): 23%
- inhibition at 10 µM (ACHN 1): 7.24%
- inhibition at 10 µM (CAKI-1): 27.5%
- inhibition at 10 µM (CCRF-CEM): 19.3%
- inhibition at 10 µM (COLO 205): 35.4%
- inhibition at 10 µM (DU-145): 7.4%
- inhibition at 10 µM (EKVX): 20.4%
- inhibition at 10 µM (HCC-2998): 4.44%
- inhibition at 10 µM (HCT-116): 30%
- inhibition at 10 µM (HCT-15): 30.7%
- inhibition at 10 µM (HOP-62): < 0%
- inhibition at 10 µM (HOP-92): 1.94%
- inhibition at 10 µM (HS 578T): 20.6%
- inhibition at 10 µM (IGROV1): < 0%
- inhibition at 10 µM (KM12): 29.8%
- inhibition at 10 µM (LOX IMVI): 11.9%
- inhibition at 10 µM (M14): 3.7%
- inhibition at 10 µM (MALME-3M): < 0%
- inhibition at 10 µM (MCF7): 18.5%
- inhibition at 10 µM (MDA-MB-468): 11.3%
- inhibition at 10 µM (NCI-H23): 1.67%
- inhibition at 10 µM (NCI-H322M): 13.8%
- inhibition at 10 µM (NCI-H460): < 0%
- inhibition at 10 µM (NCI-H522): 2.36%
- inhibition at 10 µM (NCI/ADR-RES): 17.5%
- inhibition at 10 µM (OVCAR-3): < 0%
- inhibition at 10 µM (OVCAR-4): 26.4%
- inhibition at 10 µM (OVCAR-5): 11%
- inhibition at 10 µM (PC-3): 26.4%
- inhibition at 10 µM (RPMI-8226): 26.4%
- inhibition at 10 µM (RXF 393): 23.5%
- inhibition at 10 µM (SF-268): 16.9%
- inhibition at 10 µM (SF-295): 7.88%
- inhibition at 10 µM (SF-539): 7.9%
- inhibition at 10 µM (SK-MEL-28): 5.5%
- inhibition at 10 µM (SK-MEL-2): 11.9%
- inhibition at 10 µM (SK-MEL-5): 28.9%
- inhibition at 10 µM (SK-OV-3): < 0%
- inhibition at 10 µM (SNB-19): 3.01%
- inhibition at 10 µM (SNB-75): 6.37%
- inhibition at 10 µM (SR): 39.6%
- inhibition at 10 µM (SW-620): 20.9%
- inhibition at 10 µM (T-47D): 37.6%
- inhibition at 10 µM (U251): 14.7%
- inhibition at 10 µM (UACC-62): < 0%
- inhibition at 10 µM (UO-31): 25.8%
